Like-named read-outs stand apart in the source and are kept apart here.
How the values were obtained:
[1] = Paste air entrainment, Maximum air protocol; settings: for Average of air entrained at 66 min: over the fly ash:PCA pastes of Table 9
Protocol: Preparation of pastes: Pastes were prepared by pouring 400 g of cementitious powder in the 350-400 g of solution (water and additives) in a vessel (8.4 cm dia,×14.5 cm height) while gently stirring with a spatula; the exact quantity of water depends on the selected W/B ratio (see below); rapid hand mixing was continued for 1 minute, followed by intense stirring at 25° C. during 2 min using a hand-held mixer (BRAUN model MR400). The level of air entrained is dependent on the mode of utilisation of the mixer, namely the height of the mixer from the bottom of the vessel and the length of the mixing stroke; the following protocols were adopted.
Fluidity measurements: For all air entrainment measurements, the initial fluidity of the paste (without additives) was controlled using the ‘mini-slump’ procedure widely used for paste and grouts. In this protocol, a portion of the paste was transferred into the min-slump cone (a 2¼″ high, 1½″ bottom diameter, ¾″ top diameter cone); excess paste was skimmed-off with a straight; the cone was then raised and the spread diameter of the paste was recorded (average of two measurements). The fluidity is measured at 10 minutes after mixing. The paste is returned to the batch and reserved for subsequent AE measurements. The fluidity of the paste (without SA and AEA) is adjusted by changing the amount of water (water/cementitious ratio) which yields a spread diameter of 115±5 mm. The latter is monitored regularly.
Air entrainment measurements: For air entrainment measurements, a portion of the paste was transferred to overfill a Plexiglas cylinder (3¾ inches height, 2 inches interior diameter), which was then levelled flush to the top of the cylinder with a straight edge. The mass of the filled cylinder, minus the weight of the empty cylinder, is then recorded and used to calculate the amount of air according to the following formula: […]
This procedure was carried out at three times at 30 min. intervals (6, 36 and 66 min); the paste was let to stand at rest between measurements, and was stirred gently by hand for one minute prior to the subsequent air entrainment measurements.
Other combinations of air entrainment agents and sacrificial agents were prepared as stock solutions following the procedure outlined above, adjusting the weights of the various components to achieve the desired component ratios.

[2] = Second sacrificial agent testing protocol: paste air measurements with DDBS (0.0125 wt %) and rating; for Overall performance rating (second protocol rating): key: 0: Fail; 1: Poor; 2: Good; 3: Preferred; 4: Most preferred; for SA Rating (0-4): key: 0: Fail; 1: Poor; 2: Good; 3: Preferred; 4: Most preferred
Outline: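 Air entrainment was measured in cement pastes of fixed composition and fluidity. The candidate agent was tested alone at 0.1 wt % in a cement-only paste. It was also tested at 0.05 and 0.1 wt % in a fly ash (B1)-cement paste with DDBS, where air recovery was calculated against the same paste without agent.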

[3] = 50:50 fly ash B1 (LOI 4.36%):PCA paste, Air 30 (0.0125 wt %)/ND/X=1/4/4, X = the labelled SA
[4] = 50:50 fly ash C1 (LOI 1.62%):PCA paste, Air 30 (0.0125 wt %)/ND/X=1/4/4, X = the labelled SA
[5] = 50:50 fly ash D (LOI […]):PCA paste, Air 30 (0.0125 wt %)/ND/X=1/4/4, X = the labelled SA
[6] = 50:50 fly ash M1 (LOI […]):PCA paste, Air 30 (0.0125 wt %)/ND/X=1/4/4, X = the labelled SA
[7] = 50:50 fly ash M2 (LOI 5.34%):PCA paste, Air 30 (0.0125 wt %)/ND/X=1/4/4, X = the labelled SA
[8] = 50:50 fly ash M3 (LOI 11.33%):PCA paste, Air 30 (0.0125 wt %)/ND/X=1/4/4, X = the labelled SA
[9] = 50:50 fly ash R (LOI […]):PCA paste, Air 30 (0.0125 wt %)/ND/X=1/4/4, X = the labelled SA
[10] = PCA paste, no fly ash, Air 30 (0.0125 wt %)/ND/X=1/4/4, X = the labelled SA
[11] = Air 30 (0.0125 wt %)/ND/X=1/4/4, X = the labelled SA
[12] = Portland cement paste (PCA), […]
[13] = sacrificial agent overall rating index
[14] = sum of ratings of air entrainment recovery by 0.05% and 0.1% SA, DDBS 0.0125 wt %, 50:50 B1 fly ash:cement paste

Row | Compound | Air entrained at 66 min [1, 3] | Air entrained at 66 min [1, 4] | Air entrained at 66 min [1, 5] | Air entrained at 66 min [1, 6] | Air entrained at 66 min [1, 7] | Air entrained at 66 min [1, 8] | Air entrained at 66 min [1, 9] | Air entrained at 66 min [1, 10] | Average of air entrained at 66 min [1, 11] | Overall performance rating (second protocol rating) [2] | PCA + 0.1% SA (level of air entrainment by the candidate sacrificial agent) [2, 12] | SA Rating (0-4) [2, 13] | also measured
1 | CC(O)C(O)c1ccccc1 (centres unmarked) [1-Phe 2-Pro, 1-Phenyl 2-propylene glycol] | 13 vol % | 18 vol % | 18 vol % | 16 vol % | 9 vol % | 13 vol % | 16 vol % | 17 vol % | 15% | – | – | – | –
2 | CCCCOCCOCCO [Di-EGBE, Di-ethylene glycol butyl ether] | 16 vol % | 21 vol % | 24 vol % | 21 vol % | 11 vol % | 17 vol % | 22 vol % | 22 vol % | 19% | 4 | 2.7 | 4 | B1 + 0.0125% DDBS + 0.05% SA (air entrainment) ([2]; B1 FA/cement paste, […]): 9.9; B1 + 0.0125% DDBS + 0.1% SA (air entrainment) ([2]; B1 FA/cement paste, […]): 11.2
3 | COC(C)COC(C)CO (centres unmarked) [Di-PGME, Di-propylene glycol methyl ether] | 16 vol % | 21 vol % | 25 vol % | 20 vol % | 11 vol % | 15 vol % | 20 vol % | 23 vol % | 18% | – | 1.1 | 4 | B1 + 0.0125% DDBS + 0.05% SA (air entrainment) ([2]; B1 FA/cement paste, 0.0125 wt % DDBS, 0.05 wt % SA): 8.7; B1 + 0.0125% DDBS + 0.1% SA (air entrainment) ([2]; B1 FA/cement paste, 0.0125 wt % DDBS, 0.10 wt % SA): 9.7; Overall performance rating (second protocol rating) [2, 14]: 4
4 | COCCO [EGME, Ethylene glycol methyl ether] | 12 vol % | 20 vol % | 20 vol % | 17 vol % | 8 vol % | 12 vol % | 17 vol % | 18 vol % | 15% | 1 | – | – | B1 + 0.0125% DDBS + 0.05% SA (air entrainment) [2]: 3.3; B1 + 0.0125% DDBS + 0.1% SA (air entrainment) [2]: 4.3; PCA + 0.1% SA (level of air entrainment by the candidate sacrificial agent) [2]: 0.7; SA Rating (0-4) [2]: 1
5 | OCC(O)CO [Glycerol] | 12 vol % | 18 vol % | 18 vol % | 16 vol % | 7 vol % | 11 vol % | 18 vol % | 16 vol % | 14% | 2 | 0.1 | 2 | B1 + 0.0125% DDBS + 0.1% SA (air entrainment) ([2]; B1 FA/cement paste, […]): 2.3
6 | Polyethylene glycol (Molecular weight = 200) [PEG 200] | 14 vol % | – | 20 vol % | 19 vol % | 9 vol % | – | 18 vol % | 18 vol % | 16% | – | – | – | Overall performance rating (second protocol rating) [2, 14]: 3
7 | Polyethylene glycol (Molecular weight = 1500) [PEG 1500] | 14 vol % | – | 21 vol % | 18 vol % | 9 vol % | – | 18 vol % | 20 vol % | 16% | – | – | – | Air entrained at 66 min ([1]; 50:50 fly ash B1 (LOI 4.36%):PCA paste, Air 30 (0.0125%)/NS/X=1/4/4, X = the labelled SA): 8 vol %; Air entrained at 66 min ([1]; 50:50 fly ash D (LOI […]):PCA paste, Air 30 (0.0125%)/NS/X=1/4/4, X = the labelled SA): 19 vol %; Air entrained at 66 min ([1]; 50:50 fly ash M1 (LOI […]):PCA paste, Air 30 (0.0125%)/NS/X=1/4/4, X = the labelled SA): 18 vol %; Air entrained at 66 min ([1]; 50:50 fly ash M2 (LOI 5.34%):PCA paste, Air 30 (0.0125%)/NS/X=1/4/4, X = the labelled SA): 5 vol %; Air entrained at 66 min ([1]; 50:50 fly ash R (LOI […]):PCA paste, Air 30 (0.0125%)/NS/X=1/4/4, X = the labelled SA): 16 vol %; Air entrained at 66 min ([1]; PCA paste, no fly ash, Air 30 (0.0125%)/NS/X=1/4/4, X = the labelled SA): 11 vol %
8 | Sodium di-butyl naphthalene sulfonate [DBNS] | – | – | – | – | – | – | – | – | – | – | – | – | Air entrained at 66 min ([1]; 50:50 fly ash B1 (LOI 4.36%):PCA paste, Air 30 (0.0125 wt %)/X/ButOH=1/4/4, X = the labelled sulfonated SA): 11 vol %; Air entrained at 66 min ([1]; 50:50 fly ash D (LOI […]):PCA paste, Air 30 (0.0125 wt %)/X/ButOH=1/4/4, X = the labelled sulfonated SA): 20 vol %; Air entrained at 66 min ([1]; 50:50 fly ash M2 (LOI 5.34%):PCA paste, Air 30 (0.0125 wt %)/X/ButOH=1/4/4, X = the labelled sulfonated SA): 7 vol %; Air entrained at 66 min ([1]; PCA paste, no fly ash, Air 30 (0.0125 wt %)/X/ButOH=1/4/4, X = the labelled sulfonated SA): 17 vol %

Source: patent publication US7892350B2, “Sacrificial agents for fly ash concrete” (Boral Material Technologies Inc., priority 2003, dated 2011)
